Reference: PMC3713518, “Structure-based discovery of fiber-binding compounds that reduce the cytotoxicity of amyloid beta” (eLife, 2013)

These compounds were tested against T1, Aβ1–42 fibers (Homo sapiens, UniProt P05067) (assay: 1H NMR of compound with fibers). Conditions: PBS pH 7.4, 283 K; binding to full-length Abeta fibers.
T1 construct: gene APP; residues 1-42 of Abeta from APP polyprotein; E. coli His-(NANP)19-TEV fusion, tag cut by TEV; fibrils grown 2 months
From the text: 1H NMR of compound with fibers on Aβ1–42 fibers

T1 sequence (P05067 672-713): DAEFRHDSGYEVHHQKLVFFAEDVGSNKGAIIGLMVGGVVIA

Binding to Aβ fiber / NMR peak reduction (%) | Compound
13 | Cc1ccc(O)c(N=Nc2c(O)cc(S(=O)(=O)O)c3ccccc23)c1 [BAF8]
6 | O=S(=O)(O)c1cc(S(=O)(=O)O)c2c(N=Nc3ccccc3)c(O)ccc2c1 [orange G]

Compound | Binding to Aβ fiber / NMR peak reduction (%)
O=C1OC2(c3ccccc31)c1cc(Br)c(O)c(Br)c1Oc1c2cc(Br)c(O)c1Br [BAF1] | 8

The compounds below were run against T2, KLVFFA (Aβ16–21) fibers (Homo sapiens, UniProt P05067) (assay: 1H NMR titration of compound with fibers). Conditions: not given.
T2 construct: gene APP; fibrils grown 3 months; segment of Abeta cut from APP polyprotein
Type: binding

Kd [µM] | Compound
24 ± 5 | Cc1ccc(O)c(N=Nc2c(O)cc(S(=O)(=O)O)c3ccccc23)c1 [BAF8]
43 ± 21 | O=S(=O)(O)c1cc(S(=O)(=O)O)c2c(N=Nc3ccccc3)c(O)ccc2c1 [orange G]

Compound | Kd [µM]
O=C1OC2(c3ccccc31)c1cc(Br)c(O)c(Br)c1Oc1c2cc(Br)c(O)c1Br [BAF1] | 12 ± 7
